This is an account of results in paper PMC10096344 (Molecules, 2023).

The test system of this series is C57BL/6 mice. In kind it is in vivo. On the procedure:
All animals were closely observed every day for three weeks. The body weight and toxic effects were monitored and the survival rate was calculated. At the end of experiment, the survival mice were euthanized; vital organs, including heart, liver, lung, kidney and spleen, were then excised, weighed and preserved for histopathological observation.

Consider `N#CC1=C(N)Oc2c(c(=O)oc3ccccc23)C1c1cc(C(F)(F)F)cc(C(F)(F)F)c1` (stereo not drawn) [LP4C], for which, where the note is “20 mg/kg to 320 mg/kg intragastric, three weeks”, the “survival rate vs Control” value was “not a significant difference in the survival rate”. Further, where the note is “20, 40 and 80 mg/kg intragastric, three-week period”, the “death and toxicity signs” value was “no death and obvious toxicity sign was observed”. For the same compound, under “intragastric, vs control groups”, the “histopathological changes (H&E) of heart, liver, lung, kidney and spleen” value is recorded as “no obvious pathological change was observed, except the slight hemorrhagic phenomena that occurred in the liver section in the 320 mg/kg LP4C Treatment Group”.
